{"source": "patent US8357701B2", "about": "“Galactokinase inhibitors” (University of Miami, priority 2007, dated 2013)", "assay_type_in_all_cases": "biochemical", "key": {"[1]": {"molecular_target": "T1, human galactokinase (GALK) (Homo sapiens, UniProt P51570)", "T1 construct": "made in house; host or cells: Escherichia coli HMS174 (DE3), plasmid pET15b", "T1 sequence (P51570 whole entry)": "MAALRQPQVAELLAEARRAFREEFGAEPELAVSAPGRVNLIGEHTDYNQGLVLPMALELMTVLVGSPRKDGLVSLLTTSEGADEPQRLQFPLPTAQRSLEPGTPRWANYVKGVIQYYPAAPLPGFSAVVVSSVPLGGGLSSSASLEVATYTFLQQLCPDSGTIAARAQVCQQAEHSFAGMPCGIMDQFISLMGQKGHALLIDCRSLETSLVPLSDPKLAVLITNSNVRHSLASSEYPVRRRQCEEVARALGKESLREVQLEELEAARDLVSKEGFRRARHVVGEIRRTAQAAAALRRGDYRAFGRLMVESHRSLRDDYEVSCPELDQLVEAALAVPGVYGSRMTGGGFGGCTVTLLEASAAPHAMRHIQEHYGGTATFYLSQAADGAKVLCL", "test": "two-step luminescence-based (Kinase-Glo) high-throughput GALK assay", "conditions": "ATP-γ-S from 0 to 13.3 μM, ATP constant at 5 μM; FIG. 3C", "experimental": "Using the Kinase-Glo™ reagent (Promega, Madison, Wis.), a miniaturized, two-step HTS assay for GALK was developed. […] After 60 minutes at room temperature (22° C.), 30 μL of Kinase Glo™ (Promega) was added, and luminescence was measured within 30 min using an Envision Multilabel Plate Reader (Perkin Elmer). In the course of 12 days, nearly 50,000 compounds from various libraries of small molecules with diverse structural scaffolds were screened for their inhibitory properties of GALK activity in vitro. […] The reaction was then allowed to proceed at room temperature (22° C.) for 60 min. Then, 30 μL of Kinase-Glo™ was added to stop the reaction, and luminescence was measured 15 to 30 min later using the Envision Multilabel Plate Reader (PerkinElmer). 50,000 small molecules were screened, in duplicate, for inhibitory properties against purified GALK. […] In short, duplicate luminescence measurements were corrected for background measurements using the method described by Seiler et al. (Nucl. Acids Res 2007). […] After 60 min at room temperature (22° C.), 30 μL of Kinase-Glo™ was added, and luminescence was measured within 30 min using an Envision Multilabel Plate Reader (PerkinElmer, Waltham, Mass.). […] Then, 30 μl of Kinase-Glo™ was added to stop the reaction, and luminescence was measured 15 to 30 min later using the Envision Multilabel Plate Reader (PerkinElmer). […]"}, "human GALK": {"molecular_target": "T2, human GALK (Homo sapiens, UniProt P51570)", "T2 construct": "made in house; host or cells: Escherichia coli HMS174 (DE3), plasmid pET15b", "T2 sequence (P51570 whole entry)": "as above", "test": "standard pyruvate kinase/lactate dehydrogenase-coupled GALK assay", "conditions": "dose response, FIG. 7; values somewhat lower than in the luminescence assay; no numbers given", "from_the_text": "As the percentage of substrate conversion can have significant impact on the accuracy of IC50 determination, the preferred approach is to determine reaction rates at initial velocity (i.e., zero substrate conversion). […] In this assay, the amount of galactose present in the reaction is kept in excess, whereas ATP consumed by the galactokinase reaction is recycled by the pyruvate kinase reaction.\nAs the percentage of substrate conversion can have significant impact on the accuracy of IC50 determination, the preferred approach is to determine reaction rates at initial velocity (i.e., zero substrate conversion). […] The dose response of the selected compounds was analyzed using the standard pyruvate kinase/lactate dehydrogenase-Coupled assay. In this assay, the amount of galactose present in the reaction was kept in excess, whereas ATP consumed by the galactokinase reaction was recycled by the pyruvate kinase reaction."}, "[2]": {"molecular_target": "T3, purified recombinant E. coli CDP-ME kinase (Escherichia coli, UniProt P62615)", "T3 construct": "made in house; host or cells: E. coli HMS174", "T3 sequence (P62615 1-283)": "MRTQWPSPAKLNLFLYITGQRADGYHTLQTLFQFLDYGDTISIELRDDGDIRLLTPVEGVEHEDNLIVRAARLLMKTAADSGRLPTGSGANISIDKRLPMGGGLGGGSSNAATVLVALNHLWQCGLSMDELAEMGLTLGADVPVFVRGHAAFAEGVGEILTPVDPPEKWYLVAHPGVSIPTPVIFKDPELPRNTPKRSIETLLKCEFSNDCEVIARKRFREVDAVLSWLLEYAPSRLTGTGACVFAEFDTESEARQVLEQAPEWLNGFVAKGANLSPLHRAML", "test": "CDP-ME kinase assay (luminescence-based)", "conditions": "CDP-ME as substrate; increasing compound concentration; FIG. 10B", "description": "Detailed Protocol for CDP-ME Kinase Assay\nProtocol: Mix I was prepared using 1 microL for MVK. If dilutions are to be made, dilute in 1× buffer to 1 microL. Mix II was prepared just before use, as CMP-ME and ATP may deteriorate. Final CMP-ME concentration was chosen at 50 microM for the sake of economics and kept on ice until it was dispensed.\nAt least 4 replicates per condition were used in the experiment. Mix I was dispensed on the plate with a pipette. Mix II was then added and the plate covered with foil. The plates was incubated at 37° C. for 15 minutes and Kinase-Glo® (Promega, Madison Wis.) was added, the plate covered with foil, and incubated at RT for 15 minutes. Measurements were taken as described for the GALK protocol, the data were plotted and the enzyme concentration with reading within linear range just above baseline was selected.\nProtocol to test for inhibition: Compound stored at −80° C. was slowly thawed. Stock was at 10 mM concentration.\nThese were incubated for 1 hour with MVK. Each dilution was then be pipetted into wells (40 microL each). 20 microL of Mix II was added to each well and covered with foil. The plates were incubated at 37° C., for 15 minutes, then Kinase-Glo® (Promega, Madison, Wis.) was added, plates were covered with foil, and incubated at room temperature (RT) for 15 minutes. The data was plotted and the IC50 was calculated."}}, "data": [{"smiles": "Nc1ncnc2c1ncn2[C@@H]1O[C@H](COP(=O)(O)OP(=O)(O)OP(O)(O)=S)[C@@H](O)[C@H]1O", "note": "[ATP-γ-S, adenosine 5′-O-(3-thio-)triphosphate]", "values": [{"measurement": "inhibition of GALK activity by ATP mimetic", "setting": "[1]", "value": "acted as a GALK inhibitor"}]}, {"smiles": "CC(C)(C)C(=O)Nc1ccc2c(c1)C(=O)C(=O)c1ccccc1-2", "note": "[compound 1, Tyrosine Phosphatase CD45 inhibitor]", "values": [{"measurement": "IC50 values confirmed in coupled assay", "setting": "human GALK", "value": "confirmed"}]}, {"smiles": "CC1(c2ccccc2)CC(C)(C)N2C(=O)/C(=C3/SC(=O)NC3=O)c3cccc1c32", "note": "(stereo not drawn) [compound 3]", "values": [{"measurement": "IC50 values confirmed in coupled assay", "setting": "human GALK", "value": "confirmed"}]}, {"smiles": "Oc1c(Cl)cc(Cl)c(Cl)c1Cc1c(O)c(Cl)cc(Cl)c1Cl", "note": "[compound 9, Hexachlorophene]", "values": [{"measurement": "inhibition of E. coli CDP-ME kinase", "setting": "[2]", "value": "inhibits E. coli CDP-ME kinase"}, {"measurement": "IC50 values confirmed in coupled assay", "setting": "human GALK", "value": "confirmed"}]}, {"smiles": "COC1=C(N)C(=O)c2nc(-c3nc(C(=O)O)c(C)c(-c4ccc(OC)c(OC)c4O)c3N)ccc2C1=O", "note": "[compound 24, Streptonigrin]", "values": [{"measurement": "IC50 values confirmed in coupled assay", "setting": "human GALK", "value": "confirmed"}]}]}
